Data set [1] in a line: Drug concentration in po dosed monkey plasma assessed as concentration of parent compound. As to conditions: rhesus monkey, in vivo. Type of data set: ADME, organism-based, Macaca mulatta.
Data set [2] is described as follows: Protein binding in human plasma assessed as free fraction at 3 mg/kg, po or 1 mg/kg, iv measured up to 24 hrs by LC-MS/MS analysis. Type of data set: ADME, organism-based.
Data set [3] can be described thus: Protein binding in Sprague-Dawley rat plasma assessed as free fraction at 3 mg/kg, po or 1 mg/kg, iv measured up to 24 hrs by LC-MS/MS analysis. The data set is classed as ADME, organism-based.
A short description of data set [4]: Protein binding in CD-1 mouse plasma assessed as free fraction at 3 mg/kg, po or 1 mg/kg, iv measured up to 24 hrs by LC-MS/MS analysis. Type of data set: ADME, organism-based.
The target in data set [5] is Bile salt export pump (Homo sapiens, UniProt O95342). As to the kind of experiment: Inhibition of BSEP (unknown origin). Type of data set: ADME.
Data set [6] has as its target T1, Solute carrier organic anion transporter family member 1B1 (Homo sapiens, UniProt Q9Y6L6).
T1 sequence (Q9Y6L6 whole entry): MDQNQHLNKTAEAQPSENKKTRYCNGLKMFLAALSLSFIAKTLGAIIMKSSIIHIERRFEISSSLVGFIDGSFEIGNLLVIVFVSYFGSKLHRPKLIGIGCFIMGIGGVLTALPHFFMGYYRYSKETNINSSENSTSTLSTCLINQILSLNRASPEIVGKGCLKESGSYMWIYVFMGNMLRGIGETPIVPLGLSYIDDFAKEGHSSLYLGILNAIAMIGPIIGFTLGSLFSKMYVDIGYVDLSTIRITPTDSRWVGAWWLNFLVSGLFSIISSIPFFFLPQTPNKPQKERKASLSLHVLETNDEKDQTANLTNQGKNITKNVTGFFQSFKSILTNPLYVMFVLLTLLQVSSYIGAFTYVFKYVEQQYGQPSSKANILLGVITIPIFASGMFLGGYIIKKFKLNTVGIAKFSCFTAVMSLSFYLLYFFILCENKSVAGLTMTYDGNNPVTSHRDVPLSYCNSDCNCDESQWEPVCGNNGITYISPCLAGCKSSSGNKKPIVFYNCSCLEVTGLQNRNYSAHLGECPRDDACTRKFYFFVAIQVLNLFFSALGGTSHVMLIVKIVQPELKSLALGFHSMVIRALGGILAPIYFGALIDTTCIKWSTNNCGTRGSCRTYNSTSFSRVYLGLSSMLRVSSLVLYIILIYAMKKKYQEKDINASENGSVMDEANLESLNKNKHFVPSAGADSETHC
The data set can be described thus: Inhibition of OATP1B1 (unknown origin). Type of data set: ADME.

Experimental findings from ChEMBL document CHEMBL5034035, “Discovery of an Oxycyclohexyl Acid Lysophosphatidic Acid Receptor 1 (LPA1) Antagonist BMS-986278 for the Treatment of Pulmonary Fibrotic Diseases” (J Med Chem, 2021) are described below.

pIC50: −log10 of the molar value.

Chain of Bile salt export pump (O95342 whole entry): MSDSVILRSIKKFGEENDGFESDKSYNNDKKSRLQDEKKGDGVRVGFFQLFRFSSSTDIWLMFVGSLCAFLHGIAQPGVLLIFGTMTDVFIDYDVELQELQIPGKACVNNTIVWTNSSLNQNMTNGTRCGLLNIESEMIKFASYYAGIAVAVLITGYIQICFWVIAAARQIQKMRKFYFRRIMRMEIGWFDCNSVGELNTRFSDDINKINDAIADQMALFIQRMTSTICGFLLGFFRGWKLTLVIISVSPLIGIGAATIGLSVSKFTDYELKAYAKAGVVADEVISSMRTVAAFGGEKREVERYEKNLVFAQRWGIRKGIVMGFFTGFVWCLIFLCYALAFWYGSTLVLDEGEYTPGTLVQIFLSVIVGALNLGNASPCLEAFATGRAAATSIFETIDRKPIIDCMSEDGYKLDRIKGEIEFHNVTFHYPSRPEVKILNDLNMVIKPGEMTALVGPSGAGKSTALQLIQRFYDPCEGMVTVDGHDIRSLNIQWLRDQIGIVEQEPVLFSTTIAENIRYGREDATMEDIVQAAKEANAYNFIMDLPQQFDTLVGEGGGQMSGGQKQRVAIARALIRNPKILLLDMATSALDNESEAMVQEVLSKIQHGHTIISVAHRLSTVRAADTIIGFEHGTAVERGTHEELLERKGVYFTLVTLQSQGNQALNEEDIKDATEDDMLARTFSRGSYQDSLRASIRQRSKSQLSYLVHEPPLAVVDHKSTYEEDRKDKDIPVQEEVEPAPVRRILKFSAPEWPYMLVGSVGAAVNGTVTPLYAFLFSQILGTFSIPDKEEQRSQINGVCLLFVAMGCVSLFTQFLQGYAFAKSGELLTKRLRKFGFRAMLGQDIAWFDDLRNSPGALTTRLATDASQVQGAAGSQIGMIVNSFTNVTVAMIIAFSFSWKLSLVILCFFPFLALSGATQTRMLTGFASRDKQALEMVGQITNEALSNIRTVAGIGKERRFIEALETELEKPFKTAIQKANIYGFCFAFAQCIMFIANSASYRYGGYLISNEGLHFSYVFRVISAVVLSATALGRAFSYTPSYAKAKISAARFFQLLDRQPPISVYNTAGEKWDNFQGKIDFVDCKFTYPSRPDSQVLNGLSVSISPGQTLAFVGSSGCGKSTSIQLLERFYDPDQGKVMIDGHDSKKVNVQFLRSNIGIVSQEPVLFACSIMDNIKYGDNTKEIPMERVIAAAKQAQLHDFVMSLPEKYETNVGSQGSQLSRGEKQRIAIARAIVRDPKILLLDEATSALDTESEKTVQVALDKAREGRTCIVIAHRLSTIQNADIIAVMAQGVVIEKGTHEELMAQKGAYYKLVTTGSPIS

With `CCCN(C)C(=O)OCc1c(-c2ccc(O[C@H]3CCC[C@H](C(=O)O[C@@H]4O[C@H](C(=O)O)[C@@H](O)[C@H](O)[C@H]4O)C3)c(C)n2)nnn1C`, in data set [1], the Drug uptake was below 10%.
Regarding `CN(C(=O)OCc1c(-c2ccc(O[C@H]3CCC[C@H](C(=O)O)C3)cn2)nnn1C)C1CCCC1`, the fraction unbound at 24 h in data set [2] came to 0.025; in data set [3] it was 0.025; in data set [4], 0.083. Further, the negative-log IC50 (pIC50) in data set [5] was 4.33; in data set [6], 5.04.
For the compound `CCCNC(=O)OCc1c(-c2ccc(O[C@H]3CCC[C@H](C(=O)O)C3)c(C)n2)nnn1C`, the Drug uptake in data set [1] is given as below 10%.
With `Cc1noc(-c2ccc(O[C@H]3CCC[C@H](C(=O)O)C3)nn2)c1COC(=O)N(C)C1CCCC1` (racemic), the negative logarithm of the IC50 (pIC50) in data set [5] was below 4.30; in data set [6] it was 4.45.

As a reminder, the fraction unbound is free concentration divided by total concentration. In general, pIC50 refers to the negative decadic logarithm of the IC50, by convention in mol/L.
